The values below come from patent US20160193240A1, “Ulmoside-A: Useful For Prevention Or Cure Of Metabolic Diseases” (COUNCIL OF SCIENTIFIC & INDUSTRIAL RESEARCH, priority 2013, published 2016).

Marks after values point to notes of the source that are not given here.

In assay [1] the test system is C2C12 myotubes. The assay can be described thus: Fatty acid oxidation (14CO2 release from 14C palmitate) in C2C12 myotubes. Conditions: 10 nM. The class given is cell-based, mouse. The method, then:
B. ULMA enhances fatty acid oxidation in C2C12 myotubes. C2C12 myotubes plated in 12 well plates were treated with vehicle (0.1% vol/vol DMSO) or 10 nM ULMA in DMSO (final concentration of DMSO in all wells 0.1% for 2 h, 24 h or 48 h. Data represent mean±SEM of three independent experiments performed in triplicates. Following treatment, ^14CO2 release from these cells was measured and plotted. *p<0.05, **p<0.01, ***p<0.001 as determined by two tailed unpaired student's t-test.
D. siAdipoR1 eliminates ULMA induction of fatty acid oxidation. C2C12 myotubes were transfected with nonsilencing siC or siAdipoR1. 72 h after transfection, cells were treated for 24 h with 10 nM ULMA and fatty acid oxidation experiments were performed. Data is mean±SEM of three independent experiments performed in triplicates. **p<0.01 as determined by two tailed unpaired student's t-test.
Adiponectin is known to enhance glucose uptake and fatty acid oxidation in skeletal muscle and myotubes (T. Kadowaki, T. Yamauchi, N. Kubota, K. Hara, K. Ueki, K. Tobe. J Clin Invest. 116(7): 1784-1792. 2006; T. Yamauchi, J. Kamon, Y. Ito, A. Tsuchida, T. Yokomizok, S. Kita, T. Sugiyama, M. Miyagishi, K. Hara, M. Tsunodaq, K. Murakamiq, T. Ohteki, S. Uchida, S. Takekawa, H. Waki, N. H. Tsuno, Y. Shibata, Y. Terauchi, P. Froguel, K. Tobe, S. Koyasu, K. Taira, T. Kitamura, T. Shimizuk, R. Nagai, T. Kadowaki. Nature. 423(6941):762-769. 2003). […] Subsequently, the cells were lysed in 100 μl 0.5N NaOH and 5 μl lysate was used for protein concentration determination, and rest of the lysate was used to measure cellular radioactivity in a beta-counter (Beckman Coulter). […] Radioactivity that had become adsorbed onto the filter discs was then quantified by liquid scintillation counting in a beta-counter (Beckman Coulter). The cells were lysed with 200 μl 0.5N NaOH and 5 μl of the lysate was used for protein estimation using Bradford assay and the radioactivity was normalized with the protein content.

In assay [2] the test system is Human SVF. The assay can be described thus: Brown adipose marker protein level in human stromal vascular fractions. It is filed as cell-based. The conditions noted are these: differentiated in presence of ULMA, 21 d. The method, then:
C. Cells from identical set of experiments as described in FIGS. 5A and 5B or human SVFs prepared by collagenase digestions were analyzed by western blot analysis for determination of UCP-1, UCP-2 and PGC-1α protein level. Beta-actin was used as a loading control. Data is representative of three independent experiments.
Mouse stromal vascular fractions (SVF) from epididymal fat pad were prepared using standard collagenase digestion method. Human SVF was prepared from human lipoaspirates (subcutaneous) collected from an obese individual undergoing liposuction following approval of Institutional Ethical Committee. To isolate SVFs, epidymal fat pads tissue or lipoaspirates were washed 6× in PBS and then were dispensed in tissue culture flasks. 0.2% sterile collagenase (Sigma) solution containing 1× antibiotic-antimycotic (Invitrogen) was then added to the adipose and the flasks were shaken vigorously for 10 seconds. The flasks were then incubated at 37° C. on a shaker for 2 hours with manual shaking of the flasks for 5-10 seconds every 15 min. After completion of digestion, FBS was added to the final concentration of 10% to the flasks, mixed and the collagenase digested tissue were then dispensed in 50 ml conical tubes and were centrifuged at 400 g for 10 min at room temp. […]

Assay [3] deals with wistar rats. Briefly: Dexamethasone-mediated imbalance in serum Na, K level in rats. The class given is in vivo, rat. Conditions: Dex + ULMA, 14 days.
Procedure: Food intake was measured daily and the rats were weighed each week. The rats were fasted overnight (O/N) on day 14th and on day 15th oral glucose tolerance test was performed. Following oral glucose tolerance test (OGTT), rats were kept with food and water ad libitum for one day. On day 16th, rats were fasted again O/N and then euthanized. At autopsy, from 5 animals/group, tissues were collected and snap frozen in liquid nitrogen. Blood was collected from cardiac punctures. Plasma was separated from whole blood by centrifugation at 3000 rpm for 20 min immediately after collection of blood and stored at −80° C. until further analysis. Forelimb (quadriceps) skeletal muscles were processed for RNA and protein extraction, followed by quantitative real-time PCR (QRT-PCR) analysis. Two animals from each group were used for photography post autopsy.

With `O=C1c2c(cc(O)c([C@@H]3O[C@H](CO)[C@@H](O)[C@H](O)[C@H]3O)c2O)O[C@@H](c2ccc(O)c(O)c2)[C@@H]1O` [ULMA, (2S,3S)-(+)-3′,4′,5,7-tetrahydroxydihydroflavonol-6-C-β-D-glucopyranoside], in assay [1], the “time of treatment at which induction of fatty acid oxidation was visible” value is not above 2 h. For the same compound, in assay [1] (2 h, 24 h or 48 h, increased with time), the fatty acid oxidation result is listed as “robustly induced”. Besides, the “ULMA-induced fatty acid oxidation with siAdipoR1 (not siC)” value in assay [1] (24 h, 72 h after siRNA transfection) is recorded as “completely eliminated”. For the same compound, in assay [2], the PGC-1α protein level entry is reported as “elevated” and the UCPs protein level entry was “elevated”. For the same compound, in assay [3], the “Na (mmol/l)” value is reported as 124 ± 3.7^a mmol/l and the serum K was found to be 3.93 ± 0.08 mM.
